Five molecules from patent US10428060B2, “PI-kinase inhibitors with anti-infective activity” (The Board of Trustees of the Leland Stanford Junior …, priority 2011, dated 2019) can be followed below.

A value given as a limit tells only on which side of the number the result lay.

The subject of one assay is Ebola. Nature of the assay: microbe, parasite or virus in culture. The format is cell-based. The settings on record: Zaire ebolavirus, read-out: Ebola EC50.
The target of the next assay is T1, PI3K p110g (Homo sapiens, UniProt P48736).
T1 construct: purchased Millipore
Nature of the assay: PI3K p110g kinase assay. The format is biochemical. As to the method:
(§1) In the assays described here, p110α-p85 complex and p110γ were acquired from Millipore. Assays were performed with Lα-phosphatidylinositol (Avanti) as described in Knight et al. Nat Protoc. 2007; 2 (10):2459-66. Inhibitor series were prepared 10% DMSO as 5× stocks for the assay. Assays of HsVps34 were performed as described in Knight et al, except that the final assay buffer composition used was changed to 20 mM HEPES 7.5, 100 mM NaCl, 3 mM MgCl, 1 mg/mL PI and 44 nM hvps34 was used in the assay. […] COS-7 cells were cultured in 10 cm dishes and transfected at 70% confluence with 10 μg of plasmid DNA (HA-tagged bovine PI4KIIIβ, HA-tagged human PI4KIIIα) using Lipofectamine 2000 and 5 ml Opti-MEM following the manufacturer's instructions. After 5 hours the transfection medium was replaced with 10 ml complete DMEM. 36 hrs post transfection, cells were washed once with 5 ml PBS (pH 7.4) and lysed in 1 ml of lysis buffer (1) on ice. Lysates were collected by scraping and after 15 min they were centrifuged at 13,000 rpm for 10 min. To the lysates was added 200 μl of protein G Sepharose 4 fast flow beads that were prewashed with PBS and lysis buffer and 2 μg of anti-HA antibody. The tubes were then incubated overnight at 4 degrees C. in a tube rotator. The Sepharose beads in the lysate were washed twice with 150 mM NaCl in RIPA buffer, twice with RIPA buffer and once with kinase buffer (50 mM Tris/HCl, pH 7.5, 20 mM MgCl2, 1 mM EGTA, 1 mM PtdIns, 0.4% Triton X-100, 0.5 mg/mL BSA) and finally the beads were resuspended in 200 μL kinase buffer. Kinase reactions were run in a mixture of 45 μL of PI buffer (1 mM PI in kinase buffer), 10 μL of immunoprecipitated beads, 2 µL of inhibitors (dissolved and diluted in DMSO) or DMSO and 5 μL of [γ-^32P]-ATP (1 mM and 2 μCi/tube). The immunoprecipitates in PI buffer were pre-incubated with the drugs for 20 min prior the initiation of kinase reaction by adding ATP and the reactions were carried out for 30 min in 15 ml polypropolyne tubes. Reactions were terminated by addition of 3 ml of CHCl3:CH3OH:HCl (200:100:0.75) followed by 0.6 ml of 0.6N HCl to induce phase separation. The mixtures were vortexed, centrifuged at 2000 rpm for 2 min and the upper phase was discarded. To the lower phase was added 1.5 ml of CHCl3:CH3OH:0.6N HCl (3:48:47) and the mixture vortexed and centrifuged at 2000 rpm for 2 min. The lower phase was then transferred to counting vials and evaporated. Samples were counted in a scintillation beta counter after adding 5 ml of Instafluor (Perkin-Elmer).
(§2) PI-kinase assay: Compounds are tested in C.1.1. PI kinase assays as described by Shokat et al., “A membrane capture assay for lipid kinase activity.” Nat. Protoc. 2007; 2(10):2459-66.

For the next assay, the system named is EV71. Description: EV71 antiviral assay. The format is cell-based. Particulars: Enterovirus A.
A further assay deals with PI3KC2B (Homo sapiens, UniProt O00750). Description: PI3KC2B kinase assay. It is filed as biochemical. The procedure: as §2
A further assay concerns Norovirus. Description: Norovirus antiviral assay. It is filed as cell-based.
The next assay has as its system HCV genotype 2a. Nature of the assay: microbe, parasite or virus in culture. Particulars: Hepatitis C virus, Huh7.5, read-out: HCV2a EC50. It is filed as cell-based.
The next assay deals with HRV. Nature of the assay: Rhinovirus antiviral assay. The format is cell-based. Particulars: Human rhinovirus sp.
The target in a further assay is T2, PI4KIIIA (Homo sapiens, UniProt P42356).
T2 construct: made in house; host or cells: COS-7 cells, transient transfection, anti-HA immunoprecipitate on protein G Sepharose beads
Nature of the assay: PI4KIIIA kinase assay. The format is biochemical. As to the method:
as §1, with “Reactions were terminated by addition of 3 ml of CHCl3:CH3OH:HCl (200:100:0.75) followed by 0.6 ml of 0.6N HCl to induce phase separation. The mixtures were vortexed, centrifuged at 2000 rpm for 2 min and the upper phase was discarded. To the lower phase was added 1.5 ml of CHCl3:CH3OH:0.6N HCl (3:48:47) and the mixture vortexed and centrifuged at 2000 rpm for 2 min. The lower phase was then transferred to counting vials and evaporated.” left out, “(Perkin-Elmer). […]” for “(Perkin-Elmer).”

For the next assay, the target named is T3, PI3KC2G (Homo sapiens, UniProt O75747).
T3 sequence (O75747 1-1486): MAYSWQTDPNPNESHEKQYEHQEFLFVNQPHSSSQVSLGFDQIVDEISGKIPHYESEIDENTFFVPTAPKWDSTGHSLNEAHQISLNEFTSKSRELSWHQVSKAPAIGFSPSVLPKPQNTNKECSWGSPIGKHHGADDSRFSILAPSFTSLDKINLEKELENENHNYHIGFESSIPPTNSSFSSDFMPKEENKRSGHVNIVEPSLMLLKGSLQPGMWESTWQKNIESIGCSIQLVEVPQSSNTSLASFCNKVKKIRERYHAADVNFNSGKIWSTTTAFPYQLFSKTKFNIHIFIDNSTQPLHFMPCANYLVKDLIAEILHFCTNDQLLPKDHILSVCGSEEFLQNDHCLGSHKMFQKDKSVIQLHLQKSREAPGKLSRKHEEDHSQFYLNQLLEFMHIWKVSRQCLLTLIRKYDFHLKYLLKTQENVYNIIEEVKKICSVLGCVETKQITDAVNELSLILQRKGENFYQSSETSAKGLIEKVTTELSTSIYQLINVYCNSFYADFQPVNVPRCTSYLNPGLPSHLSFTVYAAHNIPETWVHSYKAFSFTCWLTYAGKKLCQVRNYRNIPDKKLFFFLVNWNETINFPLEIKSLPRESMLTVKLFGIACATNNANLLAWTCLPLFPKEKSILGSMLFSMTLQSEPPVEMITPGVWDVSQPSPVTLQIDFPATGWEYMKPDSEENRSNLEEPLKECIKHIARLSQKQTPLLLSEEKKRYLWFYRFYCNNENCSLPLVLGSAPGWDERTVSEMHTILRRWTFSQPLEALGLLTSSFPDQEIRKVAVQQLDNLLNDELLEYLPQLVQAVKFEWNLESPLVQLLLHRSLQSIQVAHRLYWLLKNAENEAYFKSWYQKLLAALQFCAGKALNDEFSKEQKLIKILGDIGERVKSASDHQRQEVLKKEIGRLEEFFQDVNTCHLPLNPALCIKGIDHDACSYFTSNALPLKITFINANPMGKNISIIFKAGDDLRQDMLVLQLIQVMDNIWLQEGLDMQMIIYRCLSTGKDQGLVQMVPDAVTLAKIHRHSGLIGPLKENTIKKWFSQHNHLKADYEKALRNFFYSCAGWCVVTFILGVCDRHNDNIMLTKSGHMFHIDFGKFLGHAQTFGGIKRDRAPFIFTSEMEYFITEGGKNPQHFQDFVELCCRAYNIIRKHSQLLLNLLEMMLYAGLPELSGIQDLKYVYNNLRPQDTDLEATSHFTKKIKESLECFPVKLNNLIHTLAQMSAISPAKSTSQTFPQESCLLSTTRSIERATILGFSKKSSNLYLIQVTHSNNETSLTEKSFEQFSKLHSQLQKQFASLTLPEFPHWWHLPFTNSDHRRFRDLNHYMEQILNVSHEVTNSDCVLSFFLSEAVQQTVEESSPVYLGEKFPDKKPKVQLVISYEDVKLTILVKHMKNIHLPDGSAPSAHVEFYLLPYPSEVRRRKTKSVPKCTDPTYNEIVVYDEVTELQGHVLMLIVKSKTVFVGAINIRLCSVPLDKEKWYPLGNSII
Nature of the assay: PI3KC2G kinase assay. It is filed as biochemical.

Another assay addresses T4, PI4KIIIB (Bos taurus, UniProt O02810).
T4 construct: made in house; host or cells: COS-7 cells, transient transfection, anti-HA immunoprecipitate on protein G Sepharose beads
Nature of the assay: PI4KIIIB kinase assay. It is filed as biochemical, bovine. As to the method:
as §1, with “2007; 2 (10):2459-66.” left out, “for” for “for the assay. Assays of HsVps34 were performed as described in Knight et al, except that the final assay buffer composition used was changed to 20 mM HEPES 7.5, 100 mM NaCl, 3 mM MgCl, 1 mg/mL PI and 44 nM hvps34 was used in”, “Lysates were collected by scraping and after 15 min they were centrifuged at 13,000 rpm for 10 min.” left out, “The Sepharose beads in the lysate were washed twice with 150 mM NaCl in RIPA buffer, twice with RIPA buffer and once with kinase buffer (50 mM Tris/HCl, pH 7.5, 20 mM MgCl2, 1 mM EGTA, 1 mM PtdIns, 0.4% Triton X-100, 0.5 mg/mL BSA) and finally the beads were resuspended in 200 μL kinase buffer.” left out
PI-kinase assay: Compounds are tested in C.1.1. PI kinase assays as described by Shokat et al., “A membrane capture assay for lipid kinase activity.” Nat. Protoc.

For another assay, the system named is HCV replicon. Description: Resistance selection in HCV replicon system. It is filed as cell-based.

T1 sequence (P48736 whole entry): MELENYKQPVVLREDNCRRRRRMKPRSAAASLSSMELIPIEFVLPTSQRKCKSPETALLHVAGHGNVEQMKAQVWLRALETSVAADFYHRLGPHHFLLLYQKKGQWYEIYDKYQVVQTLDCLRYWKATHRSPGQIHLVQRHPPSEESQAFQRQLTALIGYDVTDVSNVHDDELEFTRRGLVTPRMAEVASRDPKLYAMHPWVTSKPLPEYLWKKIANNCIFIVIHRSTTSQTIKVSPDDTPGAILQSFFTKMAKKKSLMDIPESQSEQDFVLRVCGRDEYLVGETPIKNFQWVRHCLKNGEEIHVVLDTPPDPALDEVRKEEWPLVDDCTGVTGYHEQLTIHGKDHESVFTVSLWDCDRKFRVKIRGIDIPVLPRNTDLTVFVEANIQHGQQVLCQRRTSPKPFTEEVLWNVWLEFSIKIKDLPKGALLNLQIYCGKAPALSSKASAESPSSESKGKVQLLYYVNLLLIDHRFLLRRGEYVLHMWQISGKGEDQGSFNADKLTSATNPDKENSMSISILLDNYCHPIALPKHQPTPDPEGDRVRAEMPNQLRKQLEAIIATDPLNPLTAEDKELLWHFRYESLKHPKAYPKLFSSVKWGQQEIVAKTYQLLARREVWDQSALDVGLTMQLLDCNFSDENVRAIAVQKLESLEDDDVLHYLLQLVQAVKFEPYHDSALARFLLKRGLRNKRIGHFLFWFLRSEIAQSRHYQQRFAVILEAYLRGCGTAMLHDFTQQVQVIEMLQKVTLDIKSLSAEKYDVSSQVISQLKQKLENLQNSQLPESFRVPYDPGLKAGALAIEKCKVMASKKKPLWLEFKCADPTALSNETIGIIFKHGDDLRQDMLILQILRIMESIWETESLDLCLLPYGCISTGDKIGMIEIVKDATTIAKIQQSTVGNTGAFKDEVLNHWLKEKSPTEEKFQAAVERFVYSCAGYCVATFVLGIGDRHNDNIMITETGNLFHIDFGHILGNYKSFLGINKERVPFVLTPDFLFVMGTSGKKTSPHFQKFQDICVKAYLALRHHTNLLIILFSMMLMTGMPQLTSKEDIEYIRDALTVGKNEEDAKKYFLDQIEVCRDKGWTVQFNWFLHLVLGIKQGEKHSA
T4 sequence (O02810 whole entry): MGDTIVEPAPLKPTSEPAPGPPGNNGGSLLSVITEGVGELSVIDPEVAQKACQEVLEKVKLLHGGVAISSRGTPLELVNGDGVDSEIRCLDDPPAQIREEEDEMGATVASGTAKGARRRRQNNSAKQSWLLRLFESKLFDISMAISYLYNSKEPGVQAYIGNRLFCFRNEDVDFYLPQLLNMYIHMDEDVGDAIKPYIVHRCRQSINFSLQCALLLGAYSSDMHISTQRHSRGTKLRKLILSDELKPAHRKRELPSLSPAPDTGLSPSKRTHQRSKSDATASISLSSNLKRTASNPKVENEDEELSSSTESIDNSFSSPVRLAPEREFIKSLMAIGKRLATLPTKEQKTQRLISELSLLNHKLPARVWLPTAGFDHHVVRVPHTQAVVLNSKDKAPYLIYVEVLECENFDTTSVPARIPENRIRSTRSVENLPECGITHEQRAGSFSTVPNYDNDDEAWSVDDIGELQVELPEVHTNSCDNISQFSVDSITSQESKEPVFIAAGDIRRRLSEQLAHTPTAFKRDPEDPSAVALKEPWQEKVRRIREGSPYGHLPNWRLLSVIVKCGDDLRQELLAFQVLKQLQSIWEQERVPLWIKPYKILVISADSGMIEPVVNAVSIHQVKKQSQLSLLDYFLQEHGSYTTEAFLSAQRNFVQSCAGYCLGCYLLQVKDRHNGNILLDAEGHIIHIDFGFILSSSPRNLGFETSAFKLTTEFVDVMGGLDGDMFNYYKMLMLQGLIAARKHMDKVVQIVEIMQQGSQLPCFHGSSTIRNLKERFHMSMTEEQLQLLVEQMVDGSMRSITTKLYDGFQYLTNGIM
T2 sequence (P42356 whole entry): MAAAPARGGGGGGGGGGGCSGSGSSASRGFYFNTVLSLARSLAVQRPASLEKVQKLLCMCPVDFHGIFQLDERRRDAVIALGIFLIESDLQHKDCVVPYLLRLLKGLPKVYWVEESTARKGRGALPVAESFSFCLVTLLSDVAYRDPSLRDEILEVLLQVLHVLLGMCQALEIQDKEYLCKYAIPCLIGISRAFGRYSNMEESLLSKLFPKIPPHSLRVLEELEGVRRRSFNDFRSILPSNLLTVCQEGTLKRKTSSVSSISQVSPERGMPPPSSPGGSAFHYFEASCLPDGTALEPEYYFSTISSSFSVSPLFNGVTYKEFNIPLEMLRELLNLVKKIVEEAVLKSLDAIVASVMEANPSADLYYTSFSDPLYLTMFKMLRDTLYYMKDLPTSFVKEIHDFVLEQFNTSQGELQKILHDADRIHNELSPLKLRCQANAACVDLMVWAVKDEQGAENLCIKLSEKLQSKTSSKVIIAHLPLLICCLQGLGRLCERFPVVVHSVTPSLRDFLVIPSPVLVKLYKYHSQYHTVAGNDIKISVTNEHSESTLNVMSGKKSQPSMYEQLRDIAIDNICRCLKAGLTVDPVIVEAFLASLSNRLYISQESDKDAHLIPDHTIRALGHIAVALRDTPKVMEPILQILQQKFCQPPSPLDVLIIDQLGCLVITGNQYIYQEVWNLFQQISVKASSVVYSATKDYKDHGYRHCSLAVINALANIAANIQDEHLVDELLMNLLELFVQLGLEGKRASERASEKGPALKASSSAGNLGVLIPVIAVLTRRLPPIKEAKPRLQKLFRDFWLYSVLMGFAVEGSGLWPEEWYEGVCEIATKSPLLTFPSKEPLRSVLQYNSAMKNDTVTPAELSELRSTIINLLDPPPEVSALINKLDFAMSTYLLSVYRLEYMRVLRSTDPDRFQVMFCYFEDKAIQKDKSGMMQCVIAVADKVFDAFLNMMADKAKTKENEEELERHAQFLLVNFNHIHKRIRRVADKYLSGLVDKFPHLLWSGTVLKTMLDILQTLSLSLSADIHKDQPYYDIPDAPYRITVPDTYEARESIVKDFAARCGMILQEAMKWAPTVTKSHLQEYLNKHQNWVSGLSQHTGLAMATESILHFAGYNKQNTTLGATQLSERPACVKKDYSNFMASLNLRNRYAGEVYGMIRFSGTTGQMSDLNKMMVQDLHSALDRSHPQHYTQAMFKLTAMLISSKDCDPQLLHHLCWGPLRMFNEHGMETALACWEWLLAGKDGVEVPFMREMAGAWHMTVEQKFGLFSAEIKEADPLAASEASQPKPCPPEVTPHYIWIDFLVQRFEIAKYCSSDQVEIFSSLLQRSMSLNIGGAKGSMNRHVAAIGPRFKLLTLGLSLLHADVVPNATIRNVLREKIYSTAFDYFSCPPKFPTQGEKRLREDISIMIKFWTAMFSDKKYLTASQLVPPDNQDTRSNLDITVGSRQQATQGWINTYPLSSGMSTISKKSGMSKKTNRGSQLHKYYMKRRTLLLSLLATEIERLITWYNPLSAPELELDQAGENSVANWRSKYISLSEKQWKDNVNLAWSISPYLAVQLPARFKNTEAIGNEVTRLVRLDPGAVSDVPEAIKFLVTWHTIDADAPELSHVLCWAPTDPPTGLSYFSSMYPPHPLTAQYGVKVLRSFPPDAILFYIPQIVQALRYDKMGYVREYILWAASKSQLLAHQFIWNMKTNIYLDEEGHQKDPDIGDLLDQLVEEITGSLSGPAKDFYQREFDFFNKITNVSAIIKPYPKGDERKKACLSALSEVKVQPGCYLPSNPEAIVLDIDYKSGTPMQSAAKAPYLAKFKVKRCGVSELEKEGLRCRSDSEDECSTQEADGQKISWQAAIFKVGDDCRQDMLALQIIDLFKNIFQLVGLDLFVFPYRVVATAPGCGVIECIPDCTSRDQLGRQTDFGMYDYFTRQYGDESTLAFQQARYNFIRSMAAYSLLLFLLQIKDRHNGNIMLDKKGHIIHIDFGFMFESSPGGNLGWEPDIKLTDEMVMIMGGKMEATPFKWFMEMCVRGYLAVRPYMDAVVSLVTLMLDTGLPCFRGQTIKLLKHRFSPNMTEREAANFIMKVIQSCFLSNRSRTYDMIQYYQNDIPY

Turning to `COc1ccc(-c2sc(NC(=O)CC3CCOCC3)nc2C)cc1S(=O)(=O)Nc1ccc(O)cc1` [Compound S-227, N-[5-[3-[(4-hydroxyphenyl)sulfamoyl]-4-methoxy-phenyl]-4-methyl-thiazol-2-yl]-2-tetrahydropyran-4-yl-acetamide], the EC50 with Ebola is 0.1 to 1 µM; with EV71, under 0.001 µM; with Norovirus it was 0.1 to 1 µM; in the assay on HCV genotype 2a, 0.001 to 0.1 µM; with HRV it was 0.001 to 0.1 µM. The 50% inhibitory concentration (IC50) on PI3K p110g and on PI3KC2B was over 10 µM in each case.

Take `COc1ccc(-c2sc(NCCC3CCCCC3)nc2C)cc1S(=O)(=O)NC1CCC(O)C1` (centres unmarked) [Compound S-214, 5-[2-(2-cyclohexylethylamino)-4-methyl-thiazol-5-yl]-N-(3-hydroxycyclopentyl)-2-methoxy-benzenesulfonamide]: the IC50 is over 10 µM against PI4KIIIA, over 10 µM at PI3K p110g, over 10 µM against PI3KC2G and 0.1 to 1 µM at PI4KIIIB.

At PI3K p110g, `COc1ccc(-c2sc(NC3CCCCCC3)nc2C)cc1S(=O)(=O)Nc1c(C)cccc1C` [Compound S-98, 5-[2-(cycloheptylamino)-4-methyl-thiazol-5-yl]-N-(2,6-dimethylphenyl)-2-methoxy-benzenesulfonamide; 2,2,2-trifluoroacetic acid] showed an IC50 of over 10 µM. Moreover, the EC50 is under 0.001 µM in the assay with EV71, 1 to 10 µM in the assay on Norovirus, 1 to 10 µM in the assay on HCV genotype 2a and under 0.001 µM in the assay on HRV.

With `COc1ccc(-c2sc(NC(=O)C3CCCC3)nc2C)cc1S(=O)(=O)Nc1ccc(O)cc1` [PT423], the Selection of resistance entry in the assay on HCV replicon was “resistance was not able to be selected”.

As for `COc1ccc(-c2sc(NCC3CCCCC3)nc2C)cc1S(=O)(=O)Nc1cccc(C(C)(C)C)c1` [Compound S-32, N-(3-tert-butylphenyl)-5-[2-(cyclohexylmethylamino)-4-methyl-thiazol-5-yl]-2-methoxy-benzenesulfonamide; 2,2,2-trifluoroacetic acid], the results for the EC50 in the assay on Ebola, in the assay on HCV genotype 2a and with HRV were 1 to 10 µM, 1 to 10 µM and under 0.001 µM, respectively.
